The experiment deals with T1, human a-thrombin (Homo sapiens, UniProt P00734).
T1 construct: human a-thrombin
The experiment is described as follows: Proteinase inhibition, human a-thrombin. Particulars: 25° C., 0.05M TRIS buffer pH 7.4, 0.15M NaCl, 0.1% PEG. The experiment is classed as biochemical. As to the method:
Assays of human a-thrombin and bovine trypsin were performed at 25° C. in 0.05M TRIS buffer pH 7.4, 0.15M NaCl, 0.1% PEG. Trypsin assays also contained 1 mM CaCl2.
Concentrations of stock solutions of Z-GPR-afc were determined from measurements of absorbance at 380 nm of the 7-amino-4-trifluoromethyl coumarin produced upon complete hydrolysis of an aliquot of the stock solution by thrombin.
Times required to achieve equilibration between enzyme and inhibitor were determined in control experiments. Initial velocities of product formation in the absence (Vo) or presence of inhibitor (Vi) were measured. Assuming competitive inhibition, and that unity is negligible compared Km /[S], […] (where [S], [I], and e respectively represent the total concentrations, of substrate, inhibitor and enzyme), the equilibrium constant (Ki) for dissociation of the inhibitor from the enzyme can be obtained from the dependence of Vo /Vi on [I] shown in equation 1.

With `N=C(N)N1CCC(CNC(=O)[C@@H]2CCCN2C(=O)CC(c2ccccc2)c2ccccc2)CC1`, the Ki was determined as 2.7 nM.

`N=C(N)N1CCC(CNC(=O)[C@@H]2CCCN2C(=O)C2(O)c3ccccc3-c3ccccc32)CC1` returned a Ki of 1.1 nM.

Broadly, the Ki is a dissociation constant, usually derived from enzyme kinetics or from competition with a known ligand.

(Values after patent publication US5629324A, “Thrombin inhibitors” (Merck & Co., Inc., priority 1995, dated 1997).)
